# Laboratory results reported in ChEMBL document CHEMBL6071165, “Design, synthesis and biological evaluation of plant-derived miliusol derivatives achieve TNBC profound regression in vivo” (Eur J Med Chem, 2024).
# Calls of active or inactive are those of the source. No cut-off for these calls is given here.
# Key:
# [1] = test system: MDA-MB-231; assay: Antiproliferative activity against human MDA-MB-231 cells xenografted in female BALB/c mouse model assessed as fold change in cleavage of caspase-3 level at 10 mg/kg administered subcutaneously incubated for 24 hrs by Western blot analysis (reference value: 1.00%); type: functional; conditions: route sc
# [2] = test system: MDA-MB-231; assay: Antiproliferative activity against human MDA-MB-231 cells xenografted in female BALB/c mouse model assessed as fold change in cleavage of caspase-3 level at 5 mg/kg administered subcutaneously incubated for 24 hrs by Western blot analysis (reference value: 1.00%); type: functional; conditions: route sc
# [3] = test system: MDA-MB-231; assay: Induction of apoptosis in human MDA-MB-231 cells incubated for 24 hrs by Annexin V-PI staining based flow cytometric analysis; type: functional, cell-based; conditions: dose 0.5-2 µM
# [4] = test system: BT-549; assay: Inhibition of tumor sphere formation in human BT-549 cells at 1 uM incubated for 24 hrs by microscopic analysis; type: functional, cell-based
# [5] = test system: BT-549; assay: Induction of apoptosis in human BT-549 cells assessed as upregulation of cleavage of PARP level at 0.5 to 2 uM incubated for 24 hrs by Western blot analysis; type: functional, cell-based; conditions: dose 0.5-2 µM
# [6] = test system: BT-549; assay: Inhibition of glycolysis in human BT-549 cells assessed as decrease in GLUT4 protein level at 0.5 to 2 uM incubated for 24 hrs by Western blot analysis; type: functional, cell-based; conditions: dose 0.5-2 µM
# [7] = test system: Mitochondrial membrane; assay: Disruption of mitochondrial potential loss in human BT-549 cells assessed as increase in JC-1 monomers at 1 uM incubated for 24 hrs by JC-1 staining based flow cytometric analysis (Rvb =1.07%); type: cell membranes
# [8] = Toxicity in female BALB/c mouse xenografted with human BT-549 cells assessed as effect on pathological changes in kidney at 5 to 20 mg/kg, sc by H and E staining based analysis; type: organism-based; conditions: in vivo, dose 5-20 mg/kg
# [9] = test system: MDA-MB-231; assay: Induction of apoptosis in human MDA-MB-231 cells assessed as viable cells at 2 uM incubated for 24 hrs by Annexin V-PI staining based flow cytometric analysis (reference value: 96.5%); type: functional; conditions: read-out: Activity
# [10] = Toxicity in female BALB/c mouse assessed as change in liver administered subcutaneously measured upto 16 days; type: tissue-based; conditions: in vivo, sc, 384 h, time < 16 day
# [11] = test system: MDA-MB-231; assay: Inhibition of glycolysis in human MDA-MB-231 cells assessed as decrease in PKM2 protein level at 0.5 to 2 uM incubated for 24 hrs by Western blot analysis; type: functional, cell-based; conditions: dose 0.5-2 µM
# [12] = test system: BT-549; assay: Induction of ER stress in human BT-549 cells assessed as activation of CHOP protein level incubated for 24 hrs by Western blot analysis; type: functional, cell-based; conditions: dose 0.5-2 µM
# [13] = test system: BT-549; assay: Inhibition of DNA replication in human BT-549 cells assessed as reduction in EDU fluorescence intensity by EDU staining based fluorescence microscopic analysis; type: functional, cell-based; conditions: dose 0.5-2 µM
# [14] = test system: MDA-MB-231; assay: Inhibition of glycolysis in human MDA-MB-231 cells assessed as decrease in GLUT4 protein level at 0.5 to 2 uM incubated for 24 hrs by Western blot analysis; type: functional, cell-based; conditions: dose 0.5-2 µM
# [15] = test system: MDA-MB-231; assay: Inhibition of cell migration in human MDA-MB-231 cells assessed as reduction in MMP-2 protein level at 1 uM incubated for 24 hrs by DAPI staining based immunofluorescence analysis; type: functional
# [16] = test system: MDA-MB-231; assay: Induction of apoptosis in human MDA-MB-231 cells assessed as late apoptotic cells at 1 uM incubated for 24 hrs by Annexin V-PI staining based flow cytometric analysis (reference value: 1.83%); type: functional
# [17] = test system: BT-549; assay: Induction of apoptosis in human BT-549 cells assessed as late apoptotic cells at 1 uM incubated for 24 hrs by Annexin V-PI staining based flow cytometric analysis (reference value: 2.95%); type: functional
# [18] = test system: BT-549; assay: Induction of ER stress in human BT-549 cells assessed as upregulation of BIP protein level at 1 uM incubated for 24 hrs by DAPI staining based immunofluorescence analysis; type: functional, cell-based
# [19] = test system: BT-549; assay: Induction of apoptosis in human BT-549 cells assessed as upregulation of Bax expression at 0.5 to 2 uM incubated for 24 hrs by Western blot analysis; type: functional, cell-based; conditions: dose 0.5-2 µM
smiles,measurement,setting,value
CC(C)=CCC/C(C)=C/[C@H]1OC(=O)CC12C[C@H](OC(=O)Cc1ccc(NC(=O)/C=C/c3ccccc3)cc1)C=CC2=O (some centres undefined),fold change (FC),[1],1.67
same,fold change (FC),[2],1.11
same,Activity,[3],Dose-Dependent Effect
same,inhibition,[4],Active
same,Activity,[5],Active
same,inhibition,[6],Active
same,Activity,[7],56.3%
same,Activity,[8],Non-Toxic
same,viability at 2 µM,[9],48.8%
same,Activity,[10],Non-Toxic
same,inhibition,[11],Active
same,Activity,[12],Dose-Dependent Effect
same,inhibition,[13],Dose-Dependent Effect
same,inhibition,[14],Active
same,inhibition,[15],Active
same,Activity,[16],41.2%
same,Activity,[17],24.9%
same,Activity,[18],Active
same,Activity,[19],Active
